Measurements from patent US20150297718A1, “ION[…] OF CATIONIC PRODRUGS FOR TOPICAL TREATMENT OF MUSCU[…] SKIN DISEASES” (priority 2014, published 2015).

Experiments:
[1] = test system: melanoma cell (A375); assay: In vitro cell viability assay on melanoma cell growth; format: cell-based; settings: A375 cells, read-out: 50% inhibition concentration (IC50) on melanoma cell (A375) growth
Source text: The drug concentrations in the skin after the iontophoresis delivery of those prodrugs or their parent drug ketoprofen from different iontophoresis conditions are summarized in Table 2. The high drug concentration in the skin can be used for treatment of skin diseases including skin cancers such as melanoma. […] The ketoprofen concentrations in the skin from the iontophoresis delivery was not higher than its IC50 against the melanoma cell growth, but the KCE and KME concentrations in the skin from the anode iontophoresis delivery were higher than their IC50 against the melanoma cell growth. Thus, the anode iontophoresis of the prodrugs can provide high drug accumulation in the skin, and such high drug accumulation in the skin can be used for skin disease treatment.

[2] = In vivo rat study of iontophoresis delivery on dorsal back skin: tissue and plasma drug concentrations; settings: for Drug concentration in the skin: delivered drug (prodrug or ketoprofen); for Concentration of ketoprofen converted from the prodrug in the skin: number in bracket
Protocol: (§1) The anode iontophoresis of ketoprofen cationic prodrugs KCE, KME and cathode iontophoresis of ketoprofen were compared with an in vivo rat study for evaluation of drug penetration into deep tissues. […] A prodrug solution was loaded in the cell. A constant current of 0.4 mA/cm^2 for iontophoresis was applied for 6 hours. At the end of the iontophoresis delivery, the rats were euthanized. The skin of the application site (under the glass cell) was washed with water, tape stripped once to remove residue drug on skin, and then dissected with a biopsy punch for the tissue layers: epidermis and dermis layer (depth 0-3 mm), subcutaneous tissue (fat pad) (3-4 mm), shallow muscle layer (4-6 mm), and deep muscle (6-10 mm). The tissues from the contralateral site were dissected with the same method. In addition, the plasma blood samples were obtained right before the experiment (time 0) and each hour during the experiment. The drug concentrations in the tissue and plasma samples were analyzed with a HPLC.
as §1, with “cationic prodrugs and cathode” for “cationic prodrugs KCE, KME and cathode”, “ketoprofen were also compared with” for “ketoprofen were compared with”, “rat study at 0.4 mA/cm^2 for a shorter duration of 2 hours for evaluation” for “rat study for evaluation”, “applied for 2 hours. At” for “applied for 6 hours. At”
as §1, with “cationic prodrugs and cathode” for “cationic prodrugs KCE, KME and cathode”, “ketoprofen were also compared with” for “ketoprofen were compared with”, “rat study at 0.057 mA/cm^2 for a duration of 6 hours for evaluation” for “rat study for evaluation”, “current of 0.057 mA/cm^2 for” for “current of 0.4 mA/cm^2 for”, “with a HPLC” for “with a HPLC.”
KPE is a prodrug of ketoprofen but with two methyl groups on the nitrogen atom, instead of three methyl groups on the nitrogen atom like KCE and KME. KPE can be presented as a hydrochloride salt. […] Anode iontophoresis delivery of KPE in this aqueous solution at 0.4 mA/cm^2 for a shorter duration of 2 hour was also conducted with the in vivo rat study.

[3] = In-vitro side-by-side diffusion cell study, iontophoresis across human epidermis skin; format: in vitro ADME; settings: KCE 26.6 μmol/ml, PE 4.9 μmol/ml, 0.2 mA
Source text: The efficiency in anode iontophoresis delivery of KCE and that in cathode iontophoresis delivery of ketoprofen were compared with an in-vitro side-by-side diffusion cell study. […] The human cadaver epidermis skin was sandwiched between the two half cells with stratum corneum face the donor chamber. For anode iontophoresis of KCE, KCE chloride salt solution (26.6 μmol/ml) was placed in the donor cell. For cathode iontophoresis of ketoprofen (Kt), […] solution (26.6 μmol/ml) was placed in the donor cell. Phosphate buffer solution (0.15 M at pH 7.4) was placed in the receiver chamber. Constant current 0.2 mA was applied to the diffusion cell. The amount of drug penetrated through the skin was collected in the receive chamber and analyzed with a HPLC. The anode iontophoresis of the cationic prodrug KCE delivered 4 times more drug across the skin than that delivered by the cathode iontophoresis of ketoprofen (see FIG. 4A) from the in-vitro study.
Anode iontophoresis of the cationic ketoprofen prodrug KCE (26.6 μmol/ml) with the presence of phenylephrine (PE) (4.9 μmol/ml) in solution was evaluated with an in-vitro diffusion cell study across a human epidermis skin.

[4] = iontophoresis 0.057 mA/cm^2 for 6 hrs
[5] = iontophoresis 0.4 mA/cm^2 for 2 hrs
[6] = iontophoresis 0.4 mA/cm^2 for 6 hrs

| SMILES | IC50 [1] [µM] | Plasma and contralateral tissue drug concentration ([2]; 0.057 mA/cm^2 for 6 hours) | Tissue drug concentrations / direct penetration at the application site ([2]; 0.057 mA/cm^2 for 6 hours) | Drug in tissues at the contralateral site ([2]; 0.4 mA/cm^2 for 2 hours) | Plasma drug concentration ([2]; 0.4 mA/cm^2 for 2 hours) | Tissue drug concentrations / direct penetration at the application site ([2]; 0.4 mA/cm^2 for 2 hours) | Drug in tissues at the contralateral site ([2]; 0.4 mA/cm^2 for 6 hours) | Plasma drug concentration ([2]; 0.4 mA/cm^2 for 6 hours) | Tissue drug concentrations / direct penetration at the application site ([2]; 0.4 mA/cm^2 for 6 hours) | Drug concentration in the skin [2, 4] | Concentration of ketoprofen converted from the prodrug in the skin [2, 4] | Drug concentration in the skin [2, 5] | Concentration of ketoprofen converted from the prodrug in the skin [2, 5] | Drug concentration in the skin [2, 6] | Concentration of ketoprofen converted from the prodrug in the skin [2, 6] | Amount penetrated across the skin by anode iontophoresis, KCE alone versus KCE with phenylephrine [3] |
| --- | --- | --- | --- | --- | --- | --- | --- | --- | --- | --- | --- | --- | --- | --- | --- | --- |
| CC(C[N+](C)(C)C)OC(=O)C(C)c1cccc(C(=O)c2ccccc2)c1.[Cl-] (stereo not drawn) [KME, Ketoprofen β-methylcholine ester chloride salt] | 1550 | we can detect the parent drug Kt in the plasma and also in the contralateral tissue | direct penetration into deep tissues that is up into the deep muscles | no ketoprofen or KME was detected in the tissues at the contralateral site | no ketoprofen or KME in rat plasma was detected | direct penetration into deep tissues and prodrug retaining in the tissues of the application site | No prodrug or Kt was detected in the contralateral tissues | No prodrug or Kt was detected in the plasma | High prodrug KME concentrations in the tissues of the drug application | 3725 μmol per kilogram of skin | 73 μmol per kilogram of skin | 6128 μmol per kilogram of skin | 35 μmol per kilogram of skin | 34768 μmol per kilogram of skin | 449 μmol per kilogram of skin | – |
| CC(C(=O)OCCCN(C)C)c1cccc(C(=O)c2ccccc2)c1.Cl (centres unmarked) [KPE] | – | – | – | – | lower than that from iontophoresis of Kt | Higher drug concentrations in the tissues at the drug application site than those from the contralateral site | – | – | – | – | – | 1883 μmol per kilogram of skin | 736 μmol per kilogram of skin | – | – | – |
| CNC[C@H](O)c1cccc(O)c1 [PE, phenylephrine, reference compound] | – | – | – | – | – | – | – | – | – | – | – | – | – | – | – | Significant amount of PE was also delivered across the skin |
